Reference: ChEMBL document CHEMBL3301555, “MMV Malaria Box screening in pLDH viability assay against Plasmodium falciparum gametocytes”

Legend:
[1] = tested on: Plasmodium falciparum; test: MMV: Measure of pLDH activity as indication of parasite viability. Gametocytogenesis of 3D7 Plasmodium falciparum strain was induced in vitro and asexual parasites were depleted with N-acetylglucosamine. Gametocytes were treated with dihydroartemisinin, epoxomicin, methylene blue, primaquine, puromycin or chloroquine in 96-well plates and the pLDH activity was evaluated using a modified Makler protocol. Mosquito infectivity was measured by the standard membrane feeding assay.; type: functional; design: concentration or dose not given beside the values
[2] = tested on: Plasmodium falciparum; test: MMV: Measure of pLDH activity as indication of parasite viability. Gametocytogenesis of 3D7 Plasmodium falciparum strain was induced in vitro and asexual parasites were depleted with N-acetylglucosamine. Gametocytes were treated with dihydroartemisinin, epoxomicin, methylene blue, primaquine, puromycin or chloroquine in 96-well plates and the pLDH activity was evaluated using a modified Makler protocol. Mosquito infectivity was measured by the standard membrane feeding assay. The IC50 value was extrapolated as the concentration that induced a 50% inhibition of gametocyte viability.; type: functional, organism-based

Row | SMILES | Growth Inhibition [1] [%] | IC50 [2] [nM]
1 | COc1cc(C(=O)ON=C(N)Cc2cccc3ccccc23)cc(OC)c1OC | 60.0732 | 4040
2 | CC1CC2=C(CC1CNCCCN(C)C)C(C)(C)CCC2 (centres undefined) | 91.9455 | 576
3 | COc1ccc(C(=O)NC(c2ccc(Cl)cc2Cl)c2cc(Cl)c3cccnc3c2O)cc1 (centres undefined) | 50.4754 | 3810
4 | CN(C)CCCNCc1ccc(-c2ccc(F)c(Cl)c2)o1.Cl | 63.9166 | 2210
5 | COc1cccc(C(=O)NC(c2ccc(C)cc2)c2cc(Cl)c3cccnc3c2O)c1 (centres undefined) | 50.8652 | 3090
6 | CCCOCc1cc(CN2CCN(c3cccc(Cl)c3)CC2)c(O)c2ncccc12 | 80.5 | 3800
7 | COc1cccc(NC(=O)[C@H](C(C)C)n2c(=O)[nH]c3ccccc3c2=O)c1 | 63.4258 | 2750
8 | OC(CNC1CCCCC1)Cn1c2ccc(I)cc2c2cc(I)ccc21 (centres undefined) | 78.0014 | 758
9 | CC(C)CCNCC(O)Cn1c2ccccc2c2ccccc21.Cl (centres undefined) | 62.6796 | 2830
10 | CCOc1ccc(CN2CCN(CC(O)COc3ccc(OCC(O)CN4CCN(Cc5ccc(OCC)cc5)CC4)cc3)CC2)cc1 (centres undefined) | 89.2205 | 1340
11 | COC(=O)c1ccc(C2C3=C(O)CC(c4ccc(F)cc4)CC3=Nc3ccccc3N2C(=O)c2ccccc2)cc1 (centres undefined) | 56.5126 | 6520
12 | Cl.c1ccc2c(NCCCCCCNc3c4c(nc5ccccc35)CCCC4)c3c(nc2c1)CCCC3 | 77.595 | 2390
13 | CCN(CC)CCn1c(=N)n(CC(O)c2ccc(Cl)c(Cl)c2)c2ccccc21.Cl (centres undefined) | 75.2902 | 2080
14 | CC1=C(CC(=O)c2cccc([N+](=O)[O-])c2)C(=O)c2ccccc2C1=O | 70.075 | 902
15 | O=C(NC1CCN(Cc2ccccc2)CC1)c1cc(C(=O)NC2CCN(Cc3ccccc3)CC2)cc(C(=O)NC2CCN(Cc3ccccc3)CC2)c1 | 82.7495 | 288
16 | O=C(NCCCN1CCC(N2CCCCC2)CC1)C1=Cc2cc(Br)ccc2OC1 | 57.2548 | 1440
17 | Cc1ccc2cc3c(N)c4c(C)ccc(C)c4nc3nc2c1 | 80.372 | 2720
18 | Oc1c(CN2CCN(c3ccccc3F)CC2)cc(Br)c2cccnc12 | 75.8386 | 1900
19 | CC(C)(C)CC(C)(C)NCC(O)COc1ccc(Cl)cc1Cl (centres undefined) | 54.9615 | 5620
20 | Oc1c(C(Nc2ccccn2)c2cccc(Oc3ccccc3)c2)ccc2cccnc12 (centres undefined) | 50.44 | 3890
21 | Cl.Clc1cc(Br)ccc1-c1ccc(CNCC2CCNCC2)o1 | 86.2708 | 407
22 | CN1CCN(c2ccc(Nc3c4ccccc4nc4ccccc34)cc2)CC1 | 62.7432 | 732
23 | COc1ccc(C2NCCc3c2[nH]c2ccccc32)cc1CN1CCN(c2ccc(F)cc2)CC1.Cl (centres undefined) | 75.07 | 3410
24 | CN(C)c1ccc(N=Cc2ccc(N3CCOCC3)cc2)cc1 | 78.9978 | 4160
25 | Cc1ccc(Nc2nc(-c3ccccn3)cs2)cc1 | 62.3104 | 1380

Row | SMILES | Growth Inhibition [1] [%] | IC50 [2] [nM]
26 | CSc1ccccc1C(=O)Nc1nc(-c2ccccn2)cs1 | 29.8315 | 4610
27 | CCCc1c(C)nc2ccc(Br)cc2c1O | 51.0245 | 8900
28 | Cc1cc(C)c2nc(N3CCC(C(=O)NCCCN4CCC(N5CCCCC5)CC4)CC3)sc2c1 | 59.2216 | 1930
29 | Cc1sc2ncnc(Sc3nc4ccccc4[nH]3)c2c1C | 79.0368 | 2640
30 | CN(C)CCCNc1c2ccccc2nc2ccccc12 | 9.2618 | 3140
31 | COc1ccc(C2c3ccc4ccccc4c3Oc3ncn(CCCN(C)C)c(=N)c32)cc1 (centres undefined) | 88.163 | 696
32 | COc1ccccc1NC1=C(N2CCCCC2)C(=O)c2ccccc2C1=O | 50.0502 | 236
33 | CN(C)c1ccc(C(O)(c2ccc(N(C)C)cc2)c2ccc(N(C)C)cc2)cc1 [METHYLROSANILINE] | 76.3425 | 158
34 | O=C(NC(c1ccccc1)c1ccc2cccnc2c1O)c1ccccc1 (centres undefined) | 59.5194 | 2650
35 | COc1ccc(C(=O)C(CCC(CNC(C)(C)C)C(=O)c2ccc(OC)cc2)CNC(C)(C)C)cc1 (centres undefined) | 56.45 | 3220
36 | Cc1cccc(-n2ncc3c(O)nc(-n4nc(C)cc4NC(=O)c4cc5ccccc5o4)nc32)c1 | 60.253 | 1620
37 | CC(C)OCc1cc(CN2CCN(c3cccc(Cl)c3)CC2)c(O)c2ncccc12 | 56.857 | 3280
38 | COc1ccc(-c2cc3c(nn2)-c2ccccc2C3=O)cc1 | 49.5345 | 5010
39 | CCOC(=O)c1c(NC(=O)c2ccccc2)sc2c(O)c(CN(CC)CC)ccc12 | 35.4934 | 
40 | Cl.N=c1n(CCN2CCCCC2)c2ccccc2n1CC(O)c1cccc(Br)c1 (centres undefined) | 59.1366 | 3930
41 | O=C(O)C(=O)O.Oc1ccccc1CN1CCN(C(c2ccccc2)c2ccccc2)CC1 | 27.3522 | 
42 | COc1cc(C(=O)Nc2ccc(-c3nc4ccccc4[nH]3)cc2)cc(OC)c1OC | 13.7592 | 
43 | CCOc1ccccc1NC(=O)CN1CCN(C(=O)c2ccco2)CC1 | 5.6622 | 
44 | COc1cc(C(=O)Nc2nc3c(cc4c5c(cccc53)CC4)s2)cc(OC)c1OC | 2.6754 | 
45 | CCOc1ccccc1CNC(=O)C1c2ccccc2C(=O)N(CC(C)C)C1c1cccs1 (centres undefined) | 7.24 | 
46 | CCC(=O)Nc1nnc(Cc2ccc(OC)c(OC)c2)s1 | 9.8854 | 
47 | CC(C)(C)CC(C)(C)NCC(O)COc1ccc2c(c1)CCC2.Cl (centres undefined) | 14.2274 | 
48 | COc1ccc(C(=O)Nc2ccc(Cl)cc2C(=O)Nc2ccncc2)cc1 | 8.2224 | 
49 | COc1ccc(NC(=O)C2c3ccccc3C(=O)N(CC(C)C)C2c2cccs2)cc1 (centres undefined) | 28.379 | 
50 | COc1cccc(Nc2nc(NCCO)c3ccccc3n2)c1.Cl | 21.665 | 
